In patent US8044098B2, “Use of hydroxybenzoic acids and their esters and analogues for preventing or treating virus infection” (Shenghua Guangzhou Pharmaceutical Science & Technology Co., …, priority 2005, dated 2011):

Columns and labels:
[1] = test system: HPV 6/11; assay: Drug screening by quantitative fluorescent PCR analysis of HPV 6/11 in condyloma acuminata homogenate; parameters: species or system human papillomavirus (HPV); conditions: for HPV 6/11 Virus (copies/ml): 50 μl 10% micro emulsion + 50 μl HPV sample homogenate, 37° C., 24 hours, saline control 1.45 × 10^6; for HPV 6/11 detected by FQ-PCR (in words): 24 hours after adding the test compound
[2] = test system: HPV 16/18; assay: Drug screening by quantitative fluorescent PCR analysis of HPV 16/18 in condyloma acuminata homogenate; parameters: species or system human papillomavirus (HPV); conditions: for HPV 16/18 Virus (copies/ml): 50 μl 10% micro emulsion + 50 μl HPV sample homogenate, 37° C., 24 hours, saline control 1.40 × 10^5; for HPV 16/18 detected by FQ-PCR (in words): 24 hours after adding the test compound
[3] = test system: condyloma acuminata; assay: Clinical use in treating condyloma acuminata; type: in vivo, human; conditions: for treatment effect compared to recombinant human interferon α-2β gel: condyloma acuminata patients, 10% micro emulsion; for Recovered, 1-4 days: number of patients (50 patients in five groups), 10% micro emulsion on affected areas three times a day; for Improved: more than 30% of the skin lesions disappeared; for Obvious Effect, 1-4 days / Obvious Effect, 5-8 days: more than 70% of the skin lesions disappeared
Excerpt: Soft hyperplasia with nipple or cauliflower shaped or other shaped warts were found around the skin of the cunnus or anus. The result from 5% acetate acid white test was positive.
Patients selected for the clinical observation must meet the above standards. Plus the diameter of their skin lesions should equal to or be less than 1 cm. […] Patients who had vaginal yeast, trichomonas, bacteria infection or other complications, chronic diseases, serious liver or kidney diseases or women in pregnancy or lactation were not selected. Treatments to women would not be conducted in their menstrual periods.
50 qualified patients were selected and randomly divided into five groups to be tested with p-hydroxybenzoic acid, gallic acid, ethyl p-hydroxybenzoate, propyl gallate and recombinant human interferon α-2β gel, respectively. The samples of p-hydroxybenzoic acid, gallic acid, ethyl p-hydroxybenzoate and propyl gallate were prepared as described in Example 1. The patients were treated with the test sample to the affected areas three times a day, in the morning, at noon and night. The samples were applied to cover the warts and the patients were required to leave the treated areas exposed and not to move for 20 minutes.
Observation time: 8 days. Patients not cured after 8 days would continue to use the test samples for another 12 weeks, and their prognosis was followed during the 12-week period.
Observed items: the location, shape, size and number of warts were carefully observed and recorded before the treatment.
“Recovered”: all skin lesions had disappeared;
“Obvious Effect”: more than 70% of the skin lesions had disappeared;
“Improved”: more than 30% of the skin lesions had disappeared;
“Not Effective”: less than 30% of the skin lesions had disappeared or the original skin lesions didn't change or even enlarged.

[4] = test system: secretion of HBsAg by 2.2.15 cells; assay: Inhibition of secretion of HBsAg by Hepatitis B 2.2.15 cell line; type: cell-based, HBV; conditions: 1 μmol/ml; for HBsAg Inhibition rate: 2.2.15 cells, supernatant collected three days later
Excerpt: (§1) Hepatitis B 2.2.15 cell line was transfected by HBV DNA (purchased from Institute of Biochemistry and Cell Biology of Shanghai Institute for Biological Sciences or the National Center for Drug Screening) and used as the cell model for screening anti-HBV drug compounds (See Chinese Journal Of Integrated Traditional and Western Medicine on Liver Diseases, 2004, 14(3): 158). The cell culture medium DMEM (GIBCO Company), bovine serum (Hangzhou Siji Qing Biochemical Manufacturer), G418 (GIBCO Company), 3-(4,5-dimethylthiazol-2-yl)-2,5-diphenyltetrazoliumbromide (Sigma), HBsAg and HBeAg diagnostic kit (Shanghai Kehua Bio-engineering Co., Ltd).
(§2) The test compounds listed in Table 3 below were dissolved in a mixture containing 20 ml 1,2-propylene glycol and 15 ml Tween-80 and diluted with sterile saline water to 2 μmol/ml of the test compound. Then it was mixed with the cell culture medium at equal volume to obtain a solution containing 1 μmol/ml of the tested compound. Cells at the concentration of 1×10^5 cells per milliliter were inoculated to a 24-well plate at 1 ml/well. Supernatant from the cell culture mixture was collected three days later for testing.

[5] = test system: secretion of HBeAg by 2.2.15 cells; assay: Inhibition of secretion of HBeAg by Hepatitis B 2.2.15 cell line; type: cell-based, HBV; conditions: 1 μmol/ml; for HBeAg Inhibition Rate: 2.2.15 cells, supernatant collected three days later
Excerpt: as §1, §2

[6] = test system: HSV infection; assay: External treatment of HSV infection in clinical tests; type: in vivo, human; conditions: patients with HSV infection, applied on affected areas three times a day
Excerpt: Twenty-two patients who were clinically diagnosed with HSV infection were randomly selected and divided into two groups. Acyclovir ointment and micro emulsion containing propyl gallate prepared as described in Example 1 were applied to the two groups, respectively, on the affected areas of the patients three times a day.

[7] = type: physicochemical
Protocol: 20 ml 1,2-propylene glycol, 15 ml Tween-80 and 5 ml azone were mixed together and sterile distilled water was added to bring the volume to 100 ml. The pH value of the solution was adjusted to pH 6.8 with NaOH or HCl to obtain a micro emulsion. 10 g propyl gallate and 10 g gallic acid were dissolved in the micro emulsion, respectively, and mixed well. 10 ml of each micro emulsion was added to a capped transparent glass tube. Both solutions were colorless. The absorbance of the two solutions at 400˜500 nm was measured with spectrophotometry and their absorbance was under 0.15. […] Measured by spectrophotometry again, the absorbance of the gallic acid solution was 1.2 and that of the propyl gallate solution was 0.4.

[8] = number of patients, observation 8 days

Compound	HPV 6/11 Virus (copies/ml) [1]	HPV 6/11 detected by FQ-PCR (in words) [1]	HPV 16/18 Virus (copies/ml) [2]	HPV 16/18 detected by FQ-PCR (in words) [2]	also measured
CCCOC(=O)c1ccc(O)c(O)c1O [Propyl 2,3,4-trihydroxybenzoate]	0 copies/ml	no HPV 6/11 or HPV 16/18 was detected	0 copies/ml	no HPV 6/11 or HPV 16/18 was detected	–
O=C(O)c1cc(O)c(O)c(O)c1 [Gallic acid]	0 copies/ml	no HPV 6/11 or HPV 16/18 was detected	0 copies/ml	no HPV 6/11 or HPV 16/18 was detected	treatment effect compared to recombinant human interferon α-2β gel [3]: more apparent treatment effect; Recovered, 1-4 days ([3]; all skin lesions disappeared): 2; Improved [3, 8]: 4; Obvious Effect, 1-4 days ([3]; number of patients): 3; Obvious Effect, 5-8 days ([3]; number of patients): 1; effect on the secretion of HBsAg by the 2.2.15 cells (in words) [4]: had inhibition effect; HBsAg Inhibition rate [4]: 8.83%; effect on the secretion of HBeAg by the 2.2.15 cells (in words) [5]: had inhibition effect; HBeAg Inhibition Rate [5]: 9.40%; average time for recovery [6]: 3 days; colour of solution, initial ([7]; micro emulsion pH 6.8, freshly prepared): colorless; absorbance after 30 days ([7]; micro emulsion pH 6.8, kept at room temperature for 30 days, 400˜500 nm): 1.2; colour of solution after 30 days ([7]; micro emulsion pH 6.8, room temperature for 30 days): light brown
CCOC(=O)c1ccc(O)c(O)c1 [Ethyl 3,4-dihydroxybenzoate]	–	–	–	–	effect on the secretion of HBsAg by the 2.2.15 cells (in words) [4]: had inhibition effect; inhibition of HBsAg secretion compared with gallic acid and 3,4-dihydroxybenzoic acid [4]: more effective; HBsAg Inhibition rate [4]: 14.20%; effect on the secretion of HBeAg by the 2.2.15 cells (in words) [5]: had inhibition effect; inhibition of HBeAg secretion compared with gallic acid and 3,4-dihydroxybenzoic acid [5]: more effective; HBeAg Inhibition Rate [5]: 6.04%
COC(=O)c1ccc(O)cc1O [Methyl 2,4-dihydroxybenzoate]	5.20 × 10^4 copies/ml	–	2.50 × 10^2 copies/ml	–	–
O=C(O)c1ccc(O)c(Br)c1 [3-bromo-4-hydroxybenzoic acid]	3.40 × 10^3 copies/ml	–	5.00 × 10^4 copies/ml	–	–
O=C(O)c1ccccc1O [Salicylic acid, salicylic acid, reference compound]	5.50 × 10^5 copies/ml	–	2.60 × 10^4 copies/ml	–	–
CCCCCCCCOC(=O)c1cc(O)c(O)c(O)c1 [Octyl gallate]	0 copies/ml	no HPV 6/11 or HPV 16/18 was detected	0 copies/ml	no HPV 6/11 or HPV 16/18 was detected	–
O=C(O)c1ccc(O)cc1 [p-hydroxybenzoic acid]	7.00 × 10^5 copies/ml	–	1.30 × 10^3 copies/ml	–	treatment effect compared to recombinant human interferon α-2β gel [3]: more apparent treatment effect; Not Effective ([3]; number of patients, less than 30% of the skin lesions disappeared, observation 8 days): 3; Improved [3, 8]: 2; Obvious Effect, 5-8 days ([3]; number of patients): 5
O=C(O)c1cc(Cl)c(O)c(Cl)c1 [3,5-dicloro-4-hydroxybenzoic acid]	2.30 × 10^3 copies/ml	–	2.60 × 10^4 copies/ml	–	–
COC(=O)c1ccc(O)c(O)c1O [Methyl 2,3,4-trihydroxybenzoate]	0 copies/ml	no HPV 6/11 or HPV 16/18 was detected	0 copies/ml	no HPV 6/11 or HPV 16/18 was detected	–
CCOC(=O)c1ccc(O)cc1 [Ethyl p-hydroxybenzoate]	8.50 × 10^4 copies/ml	–	0 copies/ml	not detected	treatment effect compared to recombinant human interferon α-2β gel [3]: more apparent treatment effect; Recovered, 1-4 days ([3]; all skin lesions disappeared): 6; Recovered, 5-8 days ([3]; number of patients, 10% micro emulsion three times a day, all skin lesions disappeared): 2; Obvious Effect, 1-4 days ([3]; number of patients): 2
